Data published in US6743925B1, “Nitroimidazole derivative and diagnostic imaging agent containing the same” (Pola Chemical Industries, Inc., priority 1999, dated 2004).

Test system: cancer-bearing mice (WHT/Ht albino mice), squamous-cell carcinoma and fibrosarcoma
Assay: Radiation intensity of each organ after intravenous injection to cancer-bearing mice
Type: in vivo
Protocol: Compound 4 of Example 4 was intravenously injected to cancer-bearing mice (WHT/Ht albino mice) (3 mice per group). Systemic frozen sections of each mouse were prepared 10, 30, 60, 120, and 150 minutes after intravenous injection, and the radiation intensity of each organ was measured. Squamous-cell carcinoma and fibrosarcoma were employed as cancer sources. When the sections was prepared, blood was collected separately, and the ratio of radiation intensity in each organ to that in blood was obtained.

[1] = 10 min. after intravenous injection
[2] = 30 min. after intravenous injection
[3] = 60 min. after intravenous injection
[4] = 120 min. after intravenous injection
[5] = 150 min. after intravenous injection

O=[N+]([O-])c1nccn1COC(CO)C[18F] (stereo not shown) [Compound 4, 1-[2-fluoro(^18F)-1-(hydroxymethyl)ethoxy]methyl-2-nitroimidazole]
radiation intensity, Blood [1]: 2.222
radiation intensity, Bone [1]: 1.157
radiation intensity, Brain [1]: 1.168
radiation intensity, Fibrosarcoma [1]: 1.584
radiation intensity, Heart [1]: 1.721
radiation intensity, Intestine [1]: 1.697
radiation intensity, Kidney [1]: 7.935
radiation intensity, Liver [1]: 10.300
radiation intensity, Lung [1]: 2.151
radiation intensity, Muscle [1]: 1.576
radiation intensity, Squamous carcinoma [1]: 2.192
radiation intensity, Testis [1]: 0.861
ratio of radiation intensity, Fibrosarcoma/blood [1]: 0.697
ratio of radiation intensity, Squamous carcinoma/blood [1]: 0.893
radiation intensity, Blood [2]: 1.068
radiation intensity, Bone [2]: 0.617
radiation intensity, Brain [2]: 0.815
radiation intensity, Fibrosarcoma [2]: 1.319
radiation intensity, Heart [2]: 0.929
radiation intensity, Intestine [2]: 0.767
radiation intensity, Kidney [2]: 5.667
radiation intensity, Liver [2]: 5.018
radiation intensity, Lung [2]: 1.347
radiation intensity, Muscle [2]: 0.742
radiation intensity, Squamous carcinoma [2]: 1.237
radiation intensity, Testis [2]: 0.852
ratio of radiation intensity, Fibrosarcoma/blood [2]: 1.234
ratio of radiation intensity, Squamous carcinoma/blood [2]: 1.012
radiation intensity, Blood [3]: 0.379
radiation intensity, Bone [3]: 0.244
radiation intensity, Brain [3]: 0.308
radiation intensity, Fibrosarcoma [3]: 0.619
radiation intensity, Heart [3]: 0.378
radiation intensity, Intestine [3]: 0.533
radiation intensity, Kidney [3]: 1.856
radiation intensity, Liver [3]: 1.692
radiation intensity, Lung [3]: 0.596
radiation intensity, Muscle [3]: 0.314
radiation intensity, Squamous carcinoma [3]: 0.466
radiation intensity, Testis [3]: 0.466
ratio of radiation intensity, Fibrosarcoma/blood [3]: 1.634
ratio of radiation intensity, Squamous carcinoma/blood [3]: 1.384
radiation intensity, Blood [4]: 0.117
radiation intensity, Bone [4]: 0.253
radiation intensity, Brain [4]: 0.116
radiation intensity, Fibrosarcoma [4]: 0.421
radiation intensity, Heart [4]: 0.216
radiation intensity, Intestine [4]: 0.56
radiation intensity, Kidney [4]: 0.699
radiation intensity, Liver [4]: 0.730
radiation intensity, Lung [4]: 0.353
radiation intensity, Muscle [4]: 0.139
radiation intensity, Squamous carcinoma [4]: 0.133
radiation intensity, Testis [4]: 0.412
ratio of radiation intensity, Fibrosarcoma/blood [4]: 3.601
ratio of radiation intensity, Squamous carcinoma/blood [4]: 2.904
radiation intensity, Blood [5]: 0.096
radiation intensity, Bone [5]: 0.218
radiation intensity, Brain [5]: 0.126
radiation intensity, Fibrosarcoma [5]: 0.351
radiation intensity, Heart [5]: 0.186
radiation intensity, Intestine [5]: 0.488
radiation intensity, Kidney [5]: 0.511
radiation intensity, Liver [5]: 0.800
radiation intensity, Lung [5]: 0.331
radiation intensity, Muscle [5]: 0.159
radiation intensity, Squamous carcinoma [5]: 0.101
radiation intensity, Testis [5]: 0.139
ratio of radiation intensity, Fibrosarcoma/blood [5]: 3.675
ratio of radiation intensity, Squamous carcinoma/blood [5]: 2.357
